Results: patent US20040053896A1, “Pharmaceutically active compound” (priority 2000, published 2004)
Like-named read-outs stand apart in the source and are kept apart here.

How the values were obtained:
rat hepatocytes = assay: Cytotoxicity assay, chromium-51 leakage from monolayer cultures; format: cell-based; settings: rat hepatocyte monolayers, 0.012M test material, mean +/- SD, n=5; control 37.61+/-1.56%
Method: Activities of supernatants and cells were measured. Chromium-51 leakage is expressed as a percentage of the total activity (medium+cells). Values are mean +/− SD [n=5]. *=P<0.001 CL(CBZ)/CL(CBZ)-Dox and a control (no material added after incubation with chromium-51).

HepG2 cells = assay: In vitro toxicity test by in situ end labelling (ISEL), % of dead cells; format: cell-based; settings: 4 h incubation
Method: Cholyl-lysyl-doxorubicin (VIII) synthesised as described above was subjected to cytotoxicity tests in comparison with free doxorubicin and free cholate using in situ end labelling which enables semi-quantitative measure of apoptosis and necrosis.
HepG2 cells (Cobra American Type Culture Collection) in 24 well plates were used. Doxorubicin, cholate or cholyllysyldoxorubicin (in various amounts up to 0.86 μM) was added in triplicate and incubated for 4 h. The cells were trypsinized off from the well plates, cytospun, and then frozen.
In order to measure cell viability, sections were warmed up to room temperature for 30 minutes, then fixed in acetone for 10 minutes, and then wax was introduced around cells.
An in situ end labelling (ISEL) positive mixture was made up which included buffer (1 ml), dATP (1 μl), dCTP (1 μl), dGTP (1 μl), DiglldUTP (1 μl) and Klenow DNA polymerase (4 μl), and an in situ end labelling negative mixture of buffer (1 ml), dATP (1 μl), dCTP (1 μl), dGTP (1 μl), Digll, 2dUTP and water. (4 μl) was also made up. To each cytospin and coverslip was added 60 μl of the ISEL positive mixture or negative mixture. These were then floated in a water bath at 37° C. for 1 h. The coverslips were then removed and washed 3×5 mins in distilled water, followed by washing in TBS pH 7.5 for 5 mins. Anti digoxigen Alkaline phosphatase diluted 1:200 TBS was added and incubated for 1 h at room temperature and then washed in TBS pH 7.5 for 2.5 mins, followed by further washing in TBS pH 8.2 for another 2.5 mins. A substrate mixture was then made up to include naphthol phosphate (10 mg), NN-dimethylformamide (1 ml), Tris pH 8.2 (49) IM Levamasole (50 μl) and Fast blue (50 mg).
The substrate mixture was added to each cytospin and allowed to develop for 15 mins followed by washing in distilled water and then mounted.

[1] = tested on: 12 human tumour cell lines; assay: Antiproliferative activity in vitro, propidium iodide DNA content; format: cell-based; settings: for mean IC70: mean over 12 human tumour cell lines, 4 days continuous exposure
Method: Cholyl-lysyl-doxorubicin (VIII) was investigated for antiproliferative activity in vitro in 12 human tumour cell lines (including the large cell lung carcinoma H460, the mammary carcinoma cell line MCF7, the uterus carcinoma cell line UXF 1138L and the large cell lung carcinoma LXFL 529L), and was compared to free doxorubicin and cholic acid as controls. 5-20.000 cells/well were plated into 96 wells. After 24 hours, the compounds were added in dose levels ranging from 3 nM to 30 μM (cholyl-lysyl-doxorubicin and cholic acid) and from 0.3 nM to 3 μM (doxorubicin), respectively.

[2] = Percentage of dose in liver, heart, urine and blood at 60 min
Method: Further tests were performed to estimate the percentage of the dose of the compounds being tested in the liver, heart, urine and blood of Wistar rats.

Solubility in solvents = format: physicochemical
[3] = for Cumulative biliary excretion, Mean % Dose: Wistar rats; for Biliary excretion, mean % of radioactivity in the dose administered: bolus via jugular vein, 14C-Dox 1 mg/300 μl or 14C-Cpd VIII 2 mg/300 μl, n=6
[4] = Wistar rats, 60 min after injection

Structure (SMILES) | Chromium-51 leakage as a percentage of the total activity (medium+cells) (rat hepatocytes) | Mean % of dead cells (HepG2 cells; 0.03 μM) | Mean % of dead cells (HepG2 cells; 0.06 μM) | Mean % of dead cells (HepG2 cells; 0.12 μM) | Mean % of dead cells (HepG2 cells; 0.86 μM) | Mean % of dead cells (HepG2 cells; 0.45 μM) | Percentage of dose at 60 min, Mean % dose, Urine [2, 4] | mean IC70 [1] | Cumulative biliary excretion, Mean % Dose ([3]; cumulative to 0 min) | Cumulative biliary excretion, Mean % Dose ([3]; cumulative to 10 min) | Cumulative biliary excretion, Mean % Dose ([3]; cumulative to 20 min) | Cumulative biliary excretion, Mean % Dose ([3]; cumulative to 30 min) | Cumulative biliary excretion, Mean % Dose ([3]; cumulative to 40 min) | Cumulative biliary excretion, Mean % Dose ([3]; cumulative to 50 min) | Cumulative biliary excretion, Mean % Dose ([3]; cumulative to 60 min) | Biliary excretion, mean % of radioactivity in the dose administered ([3]; bile aliquot at 10 min) | Biliary excretion, mean % of radioactivity in the dose administered ([3]; bile aliquot at 20 min) | Biliary excretion, mean % of radioactivity in the dose administered ([3]; bile aliquot at 30 min) | Biliary excretion, mean % of radioactivity in the dose administered ([3]; bile aliquot at 40 min) | Biliary excretion, mean % of radioactivity in the dose administered ([3]; bile aliquot at 50 min) | other results
CC(CCC(=O)NC(CCCCNC(=O)OCc1ccccc1)C(=O)O)C1CCC2C3C(O)CC4CC(O)CCC4(C)C3CC(O)C12C (centres unmarked) [CL(CBZ), Cholyllsine-N-ε-CBZ] | 49.01+/−2.57% |  |  |  |  |  |  |  |  |  |  |  |  |  |  |  |  |  |  |  | 
COc1cccc2c1C(=O)c1c(O)c3c(c(O)c1C2=O)CC(O)(C(=O)CO)CC3OC1CC(NC(=O)C(CCCCNC(=O)OCc2ccccc2)NC(=O)CCC(C)C2CCC3C4C(O)CC5CC(O)CCC5(C)C4CC(O)C23C)C(O)C(C)O1 (centres unmarked) [CL(CBZ)-Dox, CholyllysylCBZDoxorubicin] | 36.45+/−3.77% |  |  |  |  |  |  |  |  |  |  |  |  |  |  |  |  |  |  |  | 
C[C@H](CCC(=O)O)[C@H]1CC[C@H]2[C@@H]3[C@H](O)C[C@@H]4C[C@H](O)CC[C@]4(C)[C@H]3C[C@H](O)[C@]12C [Cholate, cholic acid] |  | 1% | 0% | 1.8% | 1% |  |  |  |  |  |  |  |  |  |  |  |  |  |  |  | antitumour activity in vitro ([1]; 12 human tumour cell lines, 3 nM to 30 μM, 4 days exposure): no antitumour activity
COc1cccc2c1C(=O)c1c(O)c3c(c(O)c1C2=O)C[C@@](O)(C(=O)CO)C[C@@H]3O[C@H]1C[C@H](NC(=O)[C@H](CCCCN)NC(=O)CC[C@@H](C)[C@H]2CC[C@H]3[C@@H]4[C@H](O)C[C@@H]5C[C@H](O)CC[C@]5(C)[C@H]4C[C@H](O)[C@]23C)[C@H](O)[C@H](C)O1 [Compound (VIII), Cholyl-Lysyl-Doxorubicin] |  | 7.6% | 10.8% | 20.5% | 96.6% | 49% | 2.2 % dose | 1300 nM | 0 % Dose | 41.7 % Dose | 61.7 % Dose | 69.7 % Dose | 75.3 % Dose | 79.3 % Dose | 81.8 % Dose | 41.7% | 20% | 8% | 5.6% | 4% | Mean % of dead cells (HepG2 cells; 0.00 μM): 3.3%; Percentage of dose at 60 min, Mean % dose, Blood ([2]; Wistar rats, blood, 60 min after injection): 8.9 % dose; Percentage of dose at 60 min, Mean % dose, Heart ([2]; Wistar rats, heart, 60 min after injection): 0 % dose; Percentage of dose at 60 min, Mean % dose, Liver ([2]; Wistar rats, liver, 60 min after injection): 14.7 % dose; Percentage of dose at 60 min, Mean % dose, Total ([2]; Wistar rats, sum of liver, heart, urine and blood, 60 min): 25.8 % dose; Solubility in non-polar solvents (Solubility in solvents; non-polar solvents such as ethoxyethane): insoluble; Solubility in water, methanol and ethanol (Solubility in solvents; water, methanol and ethanol): soluble; Biliary excretion, mean % of radioactivity in the dose administered ([3]; bile aliquot at 60 min): 2.5%; Biliary excretion, mean % of radioactivity in the dose administered ([3]; time 0 min): 0%
COc1cccc2c1C(=O)c1c(O)c3c(c(O)c1C2=O)C[C@@](O)(C(=O)CO)C[C@@H]3O[C@H]1C[C@H](N)[C@H](O)[C@H](C)O1 [Doxorubicin, doxorubicin] |  | 9.4% | 14.9% | 28.9% | 100% | 50% | 4 % dose | 700 nM | 0 % Dose | 2.3 % Dose | 7 % Dose | 9.6 % Dose | 11.7 % Dose | 12.7 % Dose | 13.5 % Dose | 2.3% | 4.7% | 2.6% | 2.4% | 1% | Percentage of dose at 60 min, Mean % dose, Blood ([2]; Wistar, rat, in vivo, 60 min): 74.7 % dose; Percentage of dose at 60 min, Mean % dose, Heart ([2]; Wistar, rat, in vivo, 60 min): 10.8 % dose; Percentage of dose at 60 min, Mean % dose, Liver ([2]; Wistar, rat, in vivo, 60 min): 1.9 % dose; Biliary excretion, mean % of radioactivity in the dose administered ([3]; bile aliquot at 60 min): 0.8%; Biliary excretion, mean % of radioactivity in the dose administered ([3]; time 0 min): 0%
